{"source": "patent US20050107306A1", "about": "“Treatment of respiratory disease associated with matrix metalloproteases by inhalation of synthetic matrix metalloprotease inhibitors” (priority 2003, published 2005)", "key": {"[1]": {"target": "MMP-9 (gelatinase B) (Homo sapiens, UniProt P14780)", "sequence (P14780 94-707, species assumed)": "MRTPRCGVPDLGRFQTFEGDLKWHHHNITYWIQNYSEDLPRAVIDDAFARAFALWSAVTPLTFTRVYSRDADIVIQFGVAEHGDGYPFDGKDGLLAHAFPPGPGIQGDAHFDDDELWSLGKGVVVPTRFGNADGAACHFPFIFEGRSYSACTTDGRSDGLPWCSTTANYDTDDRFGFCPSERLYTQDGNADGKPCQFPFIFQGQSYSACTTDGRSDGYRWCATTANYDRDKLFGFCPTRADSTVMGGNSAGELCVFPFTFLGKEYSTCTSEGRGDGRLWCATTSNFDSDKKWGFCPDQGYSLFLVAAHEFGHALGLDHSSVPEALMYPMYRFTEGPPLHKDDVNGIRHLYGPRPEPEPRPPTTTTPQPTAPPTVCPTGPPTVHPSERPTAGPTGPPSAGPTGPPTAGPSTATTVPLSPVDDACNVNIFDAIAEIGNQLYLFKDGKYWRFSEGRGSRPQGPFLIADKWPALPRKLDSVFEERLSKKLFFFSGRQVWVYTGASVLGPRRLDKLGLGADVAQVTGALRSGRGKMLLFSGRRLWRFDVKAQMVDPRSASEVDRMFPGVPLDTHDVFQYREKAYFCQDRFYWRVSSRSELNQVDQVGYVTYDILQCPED", "details": "read-out: MMP-9 (gelatinase B) Kl; cited from earlier work"}, "[2]": {"target": "T1, MMP-2 (gelatinase A) (Homo sapiens, UniProt P08253)", "T1 sequence (P08253 110-660)": "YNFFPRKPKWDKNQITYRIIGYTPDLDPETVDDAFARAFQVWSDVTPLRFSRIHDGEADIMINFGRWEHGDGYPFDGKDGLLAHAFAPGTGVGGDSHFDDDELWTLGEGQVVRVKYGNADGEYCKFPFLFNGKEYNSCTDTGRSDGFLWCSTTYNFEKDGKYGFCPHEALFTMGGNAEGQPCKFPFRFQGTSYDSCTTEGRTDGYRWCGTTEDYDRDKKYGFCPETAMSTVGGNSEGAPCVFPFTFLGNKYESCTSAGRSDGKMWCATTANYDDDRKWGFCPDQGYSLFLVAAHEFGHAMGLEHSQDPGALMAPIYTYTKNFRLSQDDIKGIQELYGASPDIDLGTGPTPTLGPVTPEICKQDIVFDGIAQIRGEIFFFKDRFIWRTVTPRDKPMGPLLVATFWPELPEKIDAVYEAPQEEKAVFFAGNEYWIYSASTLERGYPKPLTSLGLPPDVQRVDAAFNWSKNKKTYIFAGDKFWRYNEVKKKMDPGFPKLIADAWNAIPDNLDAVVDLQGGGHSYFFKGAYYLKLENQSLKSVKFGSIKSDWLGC", "details": "read-out: MMP-2 (gelatinase A) Kl; cited from earlier work"}, "[3]": {"target": "MMP-3 (stromelysin) (Homo sapiens, UniProt P08254)", "sequence (P08254 100-477, species assumed)": "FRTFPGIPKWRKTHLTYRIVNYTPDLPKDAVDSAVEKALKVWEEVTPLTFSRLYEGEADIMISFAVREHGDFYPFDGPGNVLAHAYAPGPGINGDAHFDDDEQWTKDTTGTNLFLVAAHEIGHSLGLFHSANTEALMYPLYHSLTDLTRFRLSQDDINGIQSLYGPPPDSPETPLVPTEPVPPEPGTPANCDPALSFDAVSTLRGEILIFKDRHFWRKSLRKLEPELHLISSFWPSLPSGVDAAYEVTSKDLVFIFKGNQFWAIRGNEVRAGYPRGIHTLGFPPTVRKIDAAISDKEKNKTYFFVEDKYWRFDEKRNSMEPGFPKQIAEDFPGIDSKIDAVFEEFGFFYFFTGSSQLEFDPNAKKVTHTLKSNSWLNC", "details": "read-out: MMP-3 (stromelysin) Kl; cited from earlier work"}, "[4]": {"assay": "Solubility in liquid formulation", "format": "physicochemical", "details": "depending on the formulation, read-out: soluble in liquid formulation at levels up to"}, "[5]": {"system": "sheep model for asthma", "assay": "Sheep model for asthma: carbachol challenge, DRC/PC 400%", "format": "in vivo", "details": "30 μg dose, 24 hours after administration", "experimental": "Phosphate buffered saline (PBS) (control) • 2. […] Results:\nDRC/PC %400 refers to the amount of carbochol required to induce a 400% change in airway hyperresponsiveness. The amount required is measured as carbachol breath units (BU); the aerosol concentration of carbachol is fixed and the animal continues to inhale until the appropriate response in obtained. Thus, a higher value indicates a protective effect against an asthmatic reaction."}, "[6]": {"system": "murine model of cigarette smoke-related emphysema", "assay": "Murine model of cigarette smoke-related emphysema: lung morphometry, mean linear intercept (Lm)", "format": "in vivo", "details": "smoking mice", "protocol": "Five groups of animals were studied. […] Group 1 animals (32 animals) were control non-smoking animals. Group 2 animals (32 animals) were administered aerosolized PBS (10 ml/5 animals) followed by cigarette smoke. […] All adult mice (12 weeks of age at initiation) were exposed to two cigarettes per day, 6 days/wk for up to 6 months. Within each treatment group there were 3 timepoints for analysis: 1 week, 3 months, and 6 months. […] Delivery proceeded until the nebulizer ran dry (about 30 minutes). […] All were prepared in sterile saline. Vehicle control animals received sterile saline only. In each animal, the right lung was removed and used for fixation/inflation and paraffin embedding to study morphometry, to determine mean linear intercept (Lm), which is the distance between the walls of alveoli, and which increases as proteases (e.g., elastase, metalloproteases) break down pulmonary structure."}, "[7]": {"system": "MMP activity (assay designed primarily to detect MMP-9 activity)", "assay": "MMP activity of BAL samples from smoking mice treated with nebulized ilomastat", "format": "in vivo", "details": "for MMP Activity of BAL sample (mAU/min): drug treated (ilomastat 100 ug/mL nebulized daily), individual mouse samples", "experimental": "The 2-week study was a repeat of the 1-week study but used 10 animals/group.\nAt the end of each study, BAL samples were obtained from the lungs of each animal using established procedures and each sample was tested for MMP activity using an assay designed primarily to detect MMP-9 activity.\n• 1. 150 μL of MMP Reagent Mix was added to each well. The reagent mix consisted of the appropriate dilutions of previously prepared stock solutions in order to yield the following final concentrations in 200 μL final volume/well: • HEPES stock (50 mM final) • CaCl2 stock (10 mM final) • Ellmans Reagent stock (1.25 mM final) • Substrate (Bachem #H7145) stock (475 μM final) • Q.S. with dH2O • 2. Microtiter plate was placed in the 30° C. incubator for 15 min. • 3. 50 μL/well of each BAL sample was added into the appropriate wells • 4. 50 μL/well of vehicle control buffer was added to blank well. • 5. 48 μL/well of vehicle control buffer and 2 μL of MMP-9 (20 ng, CalBiochem #444231) was added to the control well. • 6. Plate was placed in VersaMax Microtiter Plate Reader which was pre-equilibrated to 30° C. • 7. Abs410 was read every 5-6 min for 3 hrs Results and Conclusions: […]"}, "[8]": {"target": "MMP-12 (macrophage metalloelastase, ME) (Homo sapiens, UniProt P39900)", "sequence (P39900 106-470, species assumed)": "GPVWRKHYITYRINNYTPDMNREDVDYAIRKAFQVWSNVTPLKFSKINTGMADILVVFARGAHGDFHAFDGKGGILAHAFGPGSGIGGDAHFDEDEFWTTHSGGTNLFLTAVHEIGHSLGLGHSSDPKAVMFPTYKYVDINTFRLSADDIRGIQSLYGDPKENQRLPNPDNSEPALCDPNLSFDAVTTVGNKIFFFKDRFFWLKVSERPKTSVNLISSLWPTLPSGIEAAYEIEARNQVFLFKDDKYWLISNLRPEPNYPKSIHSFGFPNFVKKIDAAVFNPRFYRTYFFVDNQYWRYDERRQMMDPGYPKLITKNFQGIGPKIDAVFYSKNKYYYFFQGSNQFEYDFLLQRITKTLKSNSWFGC", "details": "read-out: MMP-12 (macrophage metalloelastase, ME) Kl; cited from earlier work"}, "[9]": {"system": "murine model of cigarette smoke-related emphysema", "assay": "Murine model of cigarette smoke-related emphysema: inflammatory cells in bronchoalveolar lavage (BAL)", "format": "in vivo", "details": "smoking mice", "protocol": "Five groups of animals were studied. […] Group 1 animals (32 animals) were control non-smoking animals. Group 2 animals (32 animals) were administered aerosolized PBS (10 ml/5 animals) followed by cigarette smoke. […] All adult mice (12 weeks of age at initiation) were exposed to two cigarettes per day, 6 days/wk for up to 6 months.\nWithin each treatment group there were 3 timepoints for analysis: 1 week, 3 months, and 6 months. After one week, 3 months, and 6 months on study, 10 animals, 10 animals, and 12 animals respectively, from each group were sacrificed and analytical work on lungs and lung samples was performed (see below).\n10 mL of sterile saline or drug was placed in the nebulizer and delivered to each group of five animals. Delivery proceeded until the nebulizer ran dry (about 30 minutes).\nAll were prepared in sterile saline. Vehicle control animals received sterile saline only.\nThe left lung was subjected to bronchoalveolar lavage (BAL) to determine levels of the inflammatory cell types macrophages and neutrophils, which were counted by morphology. BAL samples were collected using 0.5 mL rinses of the left lung."}, "[10]": {"system": "human MMP-9", "assay": "MMP-9 fluorescent activity assay in induced sputum samples", "format": "biochemical", "experimental": "Induced sputum (IS) samples were collected from 22 healthy smokers (HS) and 19 patients with clinical evidence of chronic obstructive pulmonary disease (COPD) (Inclusion criteria: FER<0.7 and FEV1 % Predicted 30-80%). The IS was processed using dithiothreitol as previously described by Pavord et al. (1997) Thorax 52, 498-501. 15 randomly selected IS were used for inhibitor studies (COPD n=7; HS n=8).\nMMP-9 activity in IS was measured using a commercially available human MMP-9 fluorescent activity assay (Fluorokine® E, R&D Systems, Europe, UK). Following binding of MMP-9 (92, 82, 62 kDa forms) to an immobilized monoclonal antibody, a fluorogenic substrate linked to a quencher molecule was added. Any active MMP-9 cleaved the peptide linkers between the fluorophore and the quencher molecule allowing measurement of the fluorescence using a fluorimeter (Spectrafluor Plus, Tecan, UK). For inhibitor studies, the IS samples were incubated for 30 minutes at room temperature with the inhibitors prior to addition of the synthetic substrate."}, "[11]": {"target": "T2, MMP-7 (Homo sapiens, UniProt P09237)", "T2 sequence (P09237 95-267)": "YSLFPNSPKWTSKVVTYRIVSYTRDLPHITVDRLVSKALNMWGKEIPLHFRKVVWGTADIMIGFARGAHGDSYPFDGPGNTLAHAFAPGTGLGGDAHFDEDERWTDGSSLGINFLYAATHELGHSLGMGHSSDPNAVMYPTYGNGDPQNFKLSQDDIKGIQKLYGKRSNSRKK", "details": "read-out: MMP-7 Kl; cited from earlier work"}, "[12]": {"target": "T3, MMP-1 (collagenase-1) (Homo sapiens, UniProt P03956)", "T3 sequence (P03956 100-469)": "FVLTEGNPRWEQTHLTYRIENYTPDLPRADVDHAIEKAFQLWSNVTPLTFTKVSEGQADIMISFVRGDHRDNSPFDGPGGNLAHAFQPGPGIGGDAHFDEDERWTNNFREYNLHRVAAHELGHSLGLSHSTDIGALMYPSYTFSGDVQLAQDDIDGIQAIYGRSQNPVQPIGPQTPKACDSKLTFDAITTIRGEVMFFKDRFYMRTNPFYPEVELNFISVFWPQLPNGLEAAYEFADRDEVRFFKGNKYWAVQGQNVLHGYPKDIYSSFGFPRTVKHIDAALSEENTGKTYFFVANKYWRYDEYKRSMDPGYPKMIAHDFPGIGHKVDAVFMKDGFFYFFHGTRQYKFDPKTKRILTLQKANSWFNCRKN", "details": "read-out: MMP-1 (collagenase-1) Kl; cited from earlier work"}}, "data": [{"smiles": "CN1C(=O)N(C[C@@H](C(=O)NO)[C@@H](CC2CCCC2)C(=O)N2CCCCC2)C(=O)C1(C)C", "note": "[Ro 32-3555]", "values": [{"measurement": "Ki", "setting": "[1]", "value": 59, "unit": "nM"}, {"measurement": "Ki", "setting": "[2]", "value": 154, "unit": "nM"}]}, {"smiles": "CNC(=O)[C@H](Cc1c[nH]c2ccccc12)NC(=O)[C@@H](CC(=O)NO)CC(C)C", "note": "[ilomastat, N-[2(R)-2(hydroxyamidocarbonylmethyl)-4-methylpentanoyl]-L-tryptophan methylamide]", "values": [{"measurement": "Ki", "setting": "[3]", "value": "26 to 27", "unit": "nM"}, {"measurement": "solubility", "setting": "[4]", "value": "≤ 15", "unit": "mg/mL"}, {"measurement": "effect against asthmatic reaction, in words", "setting": "[5]", "value": "clear protective effect"}, {"measurement": "% protection (Lm)", "setting": "[6]; ilomastat dose 1 (100 ug/mL)", "value": 83, "unit": "%"}, {"measurement": "Lm vs. non-smokers (%)", "setting": "[6]; ilomastat dose 1 (100 ug/mL)", "value": 2.6, "unit": "%"}, {"measurement": "% protection (Lm)", "setting": "[6]; ilomastat dose 2 (50 ug/ml)", "value": 96, "unit": "%"}, {"measurement": "Lm vs. non-smokers (%)", "setting": "[6]; ilomastat dose 2 (50 ug/ml)", "value": 0.6, "unit": "%"}, {"measurement": "% protection (Lm)", "setting": "[6]; ilomastat dose 3 (10 ug/ml)", "value": 42, "unit": "%"}, {"measurement": "Lm vs. non-smokers (%)", "setting": "[6]; ilomastat dose 3 (10 ug/ml)", "value": 8.7, "unit": "%"}, {"measurement": "MMP activity of BAL samples, in words", "setting": "[7]; 1-week study, all five treated mouse samples", "value": "no detectable MMP activity"}, {"measurement": "MMP activity of BAL samples, in words", "setting": "[7]; 2-week study, all ten treated mouse samples", "value": "no detectable MMP activity"}, {"measurement": "MMP Activity of BAL sample (mAU/min)", "setting": "[7]; 2 week study", "value": 0, "unit": "mAU/min"}, {"measurement": "MMP Activity of BAL sample (mAU/min)", "setting": "[7]; Pilot study (1 week)", "value": 0, "unit": "mAU/min"}, {"measurement": "Ki", "setting": "[8]", "value": "0.2 to 0.4", "unit": "nM"}, {"measurement": "Macrophages, cells per ml of BAL fluid", "setting": "[9]; ilomastat dose 1 (100 ug/mL)", "value": 1000, "unit": "cells per ml"}, {"measurement": "Neutrophils, cells per ml of BAL fluid", "setting": "[9]; ilomastat dose 1 (100 ug/mL)", "value": 100, "unit": "cells per ml"}, {"measurement": "Macrophages, cells per ml of BAL fluid", "setting": "[9]; ilomastat dose 2 (50 ug/ml)", "value": 1500, "unit": "cells per ml"}, {"measurement": "Neutrophils, cells per ml of BAL fluid", "setting": "[9]; ilomastat dose 2 (50 ug/ml)", "value": 220, "unit": "cells per ml"}, {"measurement": "Macrophages, cells per ml of BAL fluid", "setting": "[9]; ilomastat dose 3 (10 ug/ml)", "value": 2500, "unit": "cells per ml"}, {"measurement": "Neutrophils, cells per ml of BAL fluid", "setting": "[9]; ilomastat dose 3 (10 ug/ml)", "value": 50, "unit": "cells per ml"}, {"measurement": "inhibitory effect on MMP-9 activity in induced sputum", "setting": "[10]; 30 uM, IS from COPD patients, p=0.249 (ns)", "value": "9.2+/−7.2%"}, {"measurement": "inhibitory effect on MMP-9 activity in induced sputum", "setting": "[10]; 30 uM, IS from healthy smokers (HS), p=0.015", "value": "22.6+/−6.7%"}, {"measurement": "inhibitory effect on MMP-9 activity in induced sputum", "setting": "[10]; 100 uM, IS from COPD patients, p=0.004", "value": "42.5+/−9.3%"}, {"measurement": "inhibitory effect on MMP-9 activity in induced sputum", "setting": "[10]; 100 uM, IS from healthy smokers (HS), p=0.008", "value": "39.4+/−6.3%"}]}, {"smiles": "O=C(NO)C1(CS(=O)(=O)c2ccc(Oc3ccc(Cl)cc3)cc2)CCOCC1", "note": "[RS-130,830]", "values": [{"measurement": "Ki", "setting": "[3]", "value": 9, "unit": "nM"}, {"measurement": "Ki", "setting": "[11]", "value": 1200, "unit": "nM"}, {"measurement": "Ki", "setting": "[12]", "value": 590, "unit": "nM"}]}]}
